Consider 18 compounds from patent publication US10829458B2 (Araxes Pharma LLC, priority 2015, dated 2020).

The assay has as its target T1, KRAS G12C 1-169, his-tagged protein, GDP-loaded (Homo sapiens, UniProt P01116, G12C).
T1 construct: KRAS G12C 1-169, his-tagged protein, GDP-loaded
Briefly: Biochemical assay: covalent modification of KRAS G12C measured by mass spectrometry (RapidFire/TOF or Q-Exactive). Conditions: covalent binding to KRAS G12C. The protocol: Test compounds were prepared as 10 mM stock solutions in DMSO (Fisher cat #BP-231-100). KRAS G12C 1-169, his-tagged protein, GDP-loaded was diluted to 2 μm in buffer (20 mM Hepes, 150 mM NaCl, 1 mM MgCl2). Compounds were tested for activity as follows:
Compounds were diluted to 50× final test concentration in DMSO in 96-well storage plates. Compound stock solutions were vortexed before use and observed carefully for any sign of precipitation. Dilutions were as follow: • For 100 μM final compound concentration, compounds were diluted to 5000 μM (5 μl 10 mM compound stock+5 μl DMSO and mixed well by pipetting. • For 30 μM final compound concentration, compounds were diluted to 1500 μM (3 μl 10 mM compound stock+17p DMSO) and mixed well by pipetting. • For 10 μM final compound concentration, compounds were diluted to 500 μM (2 μl 10 mM compound stock+38p DMSO) and mixed well by pipetting. 49p of the stock protein solution was added to each well of a 96-well PCR plate (Fisher cat #1423027). 1 μl of the diluted 50× compounds were added to appropriate wells in the PCR plate using 12-channel pipettor. Reactions were mixed carefully and thoroughly by pipetting up/down with a 200·1 multi-channel pipettor. The plate was sealed well with aluminum plate seal, and stored in drawer at room temperature for 30 min, 2 hour or 24 hrs. 5·1 of 2% formic acid (Fisher cat #A117) in DI H2O was then added to each well followed by mixing with a pipette. The plate was then resealed with aluminum seal and stored on dry ice until analyzed as described below.
The above described assays were analyzed by mass spectrometry according to one of the following two procedures:
The MS instrument is set to positive polarity, 2 GHz resolution, and low mass (1700) mode and allowed to equilibrate for 30 minutes. The instrument is then calibrated, switched to acquisition mode and the appropriate method loaded.
After another 30 minute equilibration time, a blank batch (i.e., buffer) is run to ensure equipment is operating properly. The samples are thawed at 37° C. for 10 minutes, briefly centrifuged, and transfer to the bench top. Wells A1 and H12 are spiked with 1 uL 500 uM internal standard peptide, and the plates centrifuged at 2000×g for 5 minutes. The method is then run and masses of each individual well recorded.
The masses (for which integration data is desired) for each well are pasted into the platemap and exported from the analysis. Masses for the internal standards are exported as well. The data at 50 ppm is extracted for the +19 charge state, and identity of well A1 is assigned using the internal standard spike and integrated. Peak data is exported as a TOF list and the above steps are repeated individually, for the +20, 21, 22, 23, 24, and 25 charge states.
The masses and peak intensities of KRAS G12C protein species were measured using a Dionex RSLCnano system (Thermo Scientific) connected to a Q Exactive Plus mass spectrometer (Thermo Scientific).
[…] of sample was each loaded onto a Aeris™ 3.6 μm WIDEPORE C4 200 Å, LC Column 50×2.1 mm column maintained at 40° C. at a flow rate of 600 μl min^−1 with […] (0.1% formic acid in acetonitrile). The liquid chromatography conditions were 20% solvent B for 1 min, 20% to 60% solvent B for 1.5 min, 60% to 90% solvent for 0.5 min, 90% solvent B for 0.2 min, 90% to 20% solvent B for 0.2 min, and then equilibrated for 1.6 min before the following sample injection. The flow rate was maintained at 600 μl min^−1 throughout the sample analysis.
The mass spectrometer was operated in profile mode at a resolution of 17500, 5 microscans, using 50 msec max injection time and an AGC target of 1e6, and a full mass range from 800-1850 m/z was recorded. The HCD trapping gas was optimized for maximum sensitivity for intact proteins. […]

As to `C=CC(=O)N1CCN(c2nc(NCCc3ccccn3)nc3c(F)c(-c4c(O)cccc4F)c(Cl)cc23)CC1` [Example I-153, 1-(4-(6-chloro-8-fluoro-7-(2-fluoro-6-hydroxyphenyl)-2-(2-(pyridin-2-yl)ethylamino)quinazolin-4-yl)piperazin-1-yl) prop-2-en-1-one], under “compounds of structure (I)”, the Binding % entry is “+++ (+++ indicates binding activity greater than 90%)”.

On to `C=CC(=O)N1CCN(c2nc(NCCP(C)(C)=O)nc3c(F)c(-c4c(O)cccc4F)c(Cl)cc23)CC1` [Example I-208, 1-(4-(6-chloro-2-(2-(dimethyl-phosphoryl)ethylamino)-8-fluoro-7-(2-fluoro-6-hydroxyphenyl)quinazolin-4-yl)piperazin-1-yl) prop-2-en-1-one], for which the Binding % entry (compounds of structure (I)) is “++ (++ indicates binding activity from 50 to 90%)”. For `C=CC(=O)N1CCN(c2ncnc3c(F)c(-c4cc(O)cc5ccccc45)c(Cl)cc23)[C@@H](C)C1` [III-30, 1-((3S)-4-(6-chloro-8-fluoro-7-(3-hydroxy-naphthalen-1-yl)quinazolin-4-yl)-3-methyl-piperazin-1-yl)prop-2-en-1-one], the Binding % result (compounds of structure (III)) is recorded as “+++ (+++ indicates binding activity greater than 90%)”. Take `C=CC(=O)N1CCN(c2nc(NC3CCN(C4CC4)CC3)nc3c(F)c(-c4c(C)cccc4O)c(Cl)cc23)CC1` [Example I-80, 1-(4-(6-chloro-2-(1-cyclopropyl-piperidin-4-ylamino)-8-fluoro-7-(2-hydroxy-6-methylphenyl)quinazolin-4-yl)piperazin-1-yl) prop-2-en-1-one]: the Binding % result (compounds of structure (I)) is “+++ (+++ indicates binding activity greater than 90%)”. As for `C=CC(=O)N1CCN(c2ncnc3c(F)c(-c4c(O)cccc4F)c(Cl)cc23)C(=O)C1` [III-38, 4-acryloyl-1-(6-chloro-8-fluoro-7-(2-fluoro-6-hydroxy-phenyl)quinazolin-4-yl) piperazin-2-one], the Binding % entry (compounds of structure (III)) is recorded as “++ (++ indicates activity from 50% to 90%)”. Consider `C=CC(=O)N1CCN(c2nc(OCc3ccnnc3)nc3c(F)c(-c4c(O)cccc4F)c(Cl)cc23)CC1` [Example I-127, 1-(4-(6-chloro-8-fluoro-7-(2-fluoro-6-hydroxyphenyl)-2-(pyridazin-4-ylmethoxy)quinazolin-4-yl)piperazin-1-yl) prop-2-en-1-one], for which the Binding % entry (compounds of structure (I)) is reported as “+++ (+++ indicates binding activity greater than 90%)”. Turning to `C=CC(=O)N1CCN(c2nc(NC3CCS(=O)(=O)CC3)nc3c(F)c(-c4c(O)cccc4F)c(Cl)cc23)CC1` [Example I-66, 1-(4-(6-chloro-8-fluoro-7-(2-fluoro-6-hydroxyphenyl)-2-(tetrahydro-2H-dioxothio-pyran-4-ylamino)quinazolin-4-yl)piperazin-1-yl) prop-2-en-1-one], the Binding % entry (compounds of structure (I)) is “+++ (+++ indicates binding activity greater than 90%)”. On to `C=CC(=O)N1CCN(c2nc(OCC3CCN(C4CC4)CC3)nc3c(F)c(-c4c(C)ccc5[nH]ncc45)c(Cl)cc23)CC1` [Example I-203, 1-(4-(6-chloro-2-((1-cyclopropyl-piperidin-4-yl)methoxy)-8-fluoro-7-(5-methyl-1H-indazol-4-yl)quinazolin-4-yl)piperazin-1-yl) prop-2-en-1-one], for which the Binding % entry (compounds of structure (I)) is listed as “++ (++ indicates binding activity from 50 to 90%)”.

As for `C=CC(=O)N1CCN(c2nc(OCc3ccccn3)nc3c(F)c(-c4c(O)cccc4F)c(Cl)cc23)CC1` [Example I-112, 1-(4-(6-chloro-8-fluoro-7-(2-fluoro-6-hydroxyphenyl)-2-(pyridin-2-ylmethoxy)quinazolin-4-yl)piperazin-1-yl) prop-2-en-1-one], the Binding % entry (compounds of structure (I)) is on record as “+++ (+++ indicates binding activity greater than 90%)”. Turning to `C=CC(=O)N1CCN(c2nc(OCCN3CCOCC3)nc3c(F)c(-c4c(C)ccc5[nH]ncc45)c(Cl)cc23)CC1` (atropisomer, axis not shown) [Example I-31, (R)-1-(4-(6-chloro-8-fluoro-7-(5-methyl-1H-indazol-4-yl)-2-(2-morpholino-ethoxy)quinazolin-4-yl)piperazin-1-yl)prop-2-en-1-one], where the note is “compounds of structure (I)”, the Binding % entry is “+++ (+++ indicates binding activity greater than 90%)”. Take `C=CC(=O)N1CCN(c2nc(OCc3ncccn3)nc3c(F)c(-c4c(O)cccc4F)c(Cl)cc23)CC1` [Example I-105, 1-(4-(6-chloro-8-fluoro-7-(2-fluoro-6-hydroxyphenyl)-2-(pyrimidin-2-ylmethoxy)quinazolin-4-yl)piperazin-1-yl) prop-2-en-1-one]: under “compounds of structure (I)”, the Binding % entry is listed as “+++ (+++ indicates binding activity greater than 90%)”.

For `C=CC(=O)N1CCN(c2nc(N3CC(N4CCOCC4)C3)nc3c(F)c(-c4c(O)cccc4F)c(Cl)cc23)CC1` [Example I-24, 1-(4-(6-chloro-8-fluoro-7-(2-fluoro-6-hydroxyphenyl)-2-(3-morpholino-azetidin-1-yl)quinazolin-4-yl)piperazin-1-yl)prop-2-en-1-one], under “compounds of structure (I)”, the Binding % entry is reported as “+++ (+++ indicates binding activity greater than 90%)”. The same measure, in the same setting: under `C=CC(=O)N1CCN(c2nc(OCCN(CC)CC)nc3c(F)c(-c4c(O)cccc4F)c(Cl)cc23)CC1` (atropisomer, axis not shown) [Example I-87, (S)-1-(4-(6-chloro-2-(2-(diethylamino)ethoxy)-8-fluoro-7-(2-fluoro-6-hydroxyphenyl)quinazolin-4-yl)piperazin-1-yl) prop-2-en-1-one] stands “+++ (+++ indicates binding activity greater than 90%)”.

`C=CC(=O)N1CCN(c2nc(OCCc3ccc(C)nc3)nc3c(F)c(-c4c(O)cccc4F)c(Cl)cc23)CC1` [Example I-111, 1-(4-(6-chloro-8-fluoro-7-(2-fluoro-6-hydroxyphenyl)-2-(2-(6-methyl-pyridin-3-yl)ethoxy)quinazolin-4-yl)piperazin-1-yl) prop-2-en-1-one]: the Binding % entry (compounds of structure (I)) is on record as “+ (+ indicates binding activity up to 50%)”.

In the case of `C=CC(=O)N1CCN(c2nc(OCCc3ccccn3)nc3c(F)c(-c4c(O)cccc4F)c(Cl)cc23)CC1` (atropisomer, axis not shown) [Example I-103, (S)-1-(4-(6-chloro-8-fluoro-7-(2-fluoro-6-hydroxyphenyl)-2-(2-(pyridin-2-yl)ethoxy)quinazolin-4-yl)piperazin-1-yl) prop-2-en-1-one], the Binding % result (compounds of structure (I)) is listed as “+++ (+++ indicates binding activity greater than 90%)”.

Take `C=CC(=O)N1CCN(c2nc(OCCN3CC(F)(F)C3)nc3c(F)c(-c4c(O)cccc4F)c(Cl)cc23)CC1` (atropisomer, axis not shown) [Example I-126, (R)-1-(4-(6-chloro-2-(2-(3,3-difluoro-azetidin-1-yl)ethoxy)-8-fluoro-7-(2-fluoro-6-hydroxyphenyl)quinazolin-4-yl)piperazin-1-yl) prop-2-en-1-one]: the Binding % entry (compounds of structure (I)) is “+ (+ indicates binding activity up to 50%)”. On the same count and under the same terms, in the case of `C=CC(=O)N1CCN(c2nc(N3CC4(CCOC4)C3)nc3c(F)c(-c4c(O)cccc4F)c(Cl)cc23)CC1` [Example I-155, 1-(4-(6-chloro-8-fluoro-7-(2-fluoro-6-hydroxyphenyl)-2-(6-oxa-2-azaspiro[3,4]octan-2-yl)quinazolin-4-yl)piperazin-1-yl) prop-2-en-1-one] it was “+++ (+++ indicates binding activity greater than 90%)”. Turning to `C=CC(=O)N1C[C@@H](C)N(c2ncnc3c(F)c(-c4c(O)cccc4F)c(Cl)cc23)[C@H](C)C1` [III-33, 1-((3R,5R)-4-(6-chloro-8-fluoro-7-(2-fluoro-6-hydroxy-phenyl)quinazolin-4-yl)-3,5-dimethyl-piperazin-1-yl)prop-2-en-1-one], under “compounds of structure (III)”, the Binding % entry was “+ (+ indicates binding activity up to 50%)”.
